Results published in PubChem BioAssay (NCI).
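Compound exposure: 48 hours, 5 concentrations, 96-well plates. GI50 is the concentration that inhibits growth by half. TGI denotes the concentration required for complete inhibition of growth.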

Key:
Test in all cases: NCI anticancer screen, dose series, 48 h
[1] = system: LOX IMVI melanoma
[2] = system: HCC-2998 colon
[3] = system: UACC-257 melanoma
[4] = system: SN12C renal
[5] = system: UO-31 renal
[6] = system: NCI-H226 lung
[7] = system: NCI-H23 lung
[8] = system: M14 melanoma
[9] = system: MDA-MB-231 breast
[10] = system: T-47D breast

Structure (SMILES): CCOC(=O)/C(C1=N[C@H](C(=O)OCC)CS1)=C(\O)c1ccccc1
- TGI [1]: > 100 µM
- TGI [2]: > 100 µM
- TGI [3]: > 100 µM
- TGI [4]: > 100 µM
- TGI [5]: > 100 µM
- TGI [6]: > 100 µM
- TGI [7]: > 100 µM
- TGI [8]: > 100 µM

Structure (SMILES): COc1ccc(OC)c(-c2cn3c(n2)sc2ccccc23)c1
- TGI [1]: > 100 µM
- TGI [9]: > 100 µM
- TGI [10]: > 100 µM
- TGI [3]: > 100 µM
- TGI [4]: > 100 µM
- TGI [5]: > 100 µM
- TGI [6]: > 100 µM
- TGI [7]: > 100 µM

Structure (SMILES): COc1ccccc1NC(=O)CSC(N)=O
- TGI [1]: > 100 µM
- TGI [2]: > 100 µM
- TGI [3]: > 100 µM
- TGI [4]: > 100 µM
- TGI [6]: > 100 µM
- TGI [7]: > 100 µM
- TGI [8]: > 100 µM

Structure (SMILES): COc1ccc(C2C3=CONC3CC3CCCCC32)cc1 (stereo not given)
- TGI [1]: > 100 µM
- TGI [10]: > 100 µM
- TGI [2]: 47.3 µM
- TGI [3]: > 100 µM
- TGI [5]: > 100 µM
- TGI [6]: > 100 µM
- TGI [7]: > 100 µM
- TGI [8]: > 100 µM

Structure (SMILES): O=c1[nH]nc(N/N=C\c2ccc(Cl)cc2)c2ccccc12
- TGI [9]: 43.7 µM
- TGI [10]: 69.2 µM
- TGI [3]: 49.3 µM
- TGI [4]: 73 µM
- TGI [5]: 38.7 µM
- TGI [6]: 57.4 µM
- TGI [7]: 40.1 µM
- TGI [8]: 35.4 µM

Structure (SMILES): Cc1ccc(Cl)c2c(=O)cc(-c3ccccc3)[nH]c12
- TGI [1]: > 100 µM
- TGI [3]: > 100 µM
- TGI [4]: > 100 µM
- TGI [5]: > 100 µM
- TGI [6]: > 100 µM
- TGI [7]: > 100 µM
- TGI [8]: > 100 µM

Structure (SMILES): Oc1ccc(O)c(Sc2nnc(CCCCCCCCc3nnc(Sc4cc(O)ccc4O)o3)o2)c1
- TGI [9]: > 100 µM
- TGI [2]: > 100 µM
- TGI [3]: > 100 µM
- TGI [4]: > 100 µM
- TGI [5]: 32 µM
- TGI [6]: > 100 µM
- TGI [7]: > 100 µM
- TGI [8]: > 100 µM

Structure (SMILES): O=c1cnc2cc3ccccc3cc2[nH]1
- TGI [1]: > 100 µM
- TGI [9]: > 100 µM
- TGI [2]: > 100 µM
- TGI [3]: > 100 µM
- TGI [4]: > 100 µM
- TGI [5]: > 100 µM
- TGI [6]: > 100 µM
- TGI [7]: > 100 µM
- TGI [8]: > 100 µM

Structure (SMILES): COc1ccc(C[C@H]2COC(=O)[C@@H]2Cc2ccccc2)cc1OC
- TGI [1]: > 100 µM
- TGI [9]: > 100 µM
- TGI [10]: > 100 µM
- TGI [3]: > 100 µM
- TGI [4]: > 100 µM
- TGI [6]: > 100 µM
- TGI [7]: > 100 µM

Structure (SMILES): O=C(NCCNCCO)N/N=C/c1ccccc1
- TGI [1]: > 100 µM
- TGI [3]: > 100 µM
- TGI [4]: > 100 µM
- TGI [6]: > 100 µM
- TGI [7]: > 100 µM
- TGI [8]: > 100 µM

Structure (SMILES): N#C[C@H]1C(=O)C(c2nc3ccccc3[nH]2)S[C@H]1c1ccccc1 (stereo not given in full)
- TGI [1]: > 100 µM
- TGI [2]: > 100 µM
- TGI [3]: > 100 µM
- TGI [4]: 91.3 µM
- TGI [5]: 78.8 µM
- TGI [6]: > 100 µM
- TGI [7]: 76.1 µM
- TGI [8]: > 100 µM

Structure (SMILES): CCC(=O)Nc1ccc(N2C(=O)/C(=C/c3ccc(O)c(OC)c3)N=C2c2ccccc2)cc1
- TGI [1]: > 100 µM
- TGI [10]: > 100 µM
- TGI [2]: > 100 µM
- TGI [3]: 71.5 µM
- TGI [4]: > 100 µM
- TGI [5]: > 100 µM
- TGI [6]: 50.5 µM
- TGI [7]: > 100 µM
- TGI [8]: > 100 µM

Structure (SMILES): Cc1cccc(=O)c([O-])c1.Cc1cccc(=O)c([O-])c1.Cc1cccc(=O)c([O-])c1.Cc1cccc(=O)c([O-])c1.[Th+4]
- TGI [1]: > 100 µM
- TGI [2]: > 100 µM
- TGI [3]: > 63 µM
- TGI [4]: > 100 µM
- TGI [5]: > 100 µM
- TGI [6]: > 100 µM
- TGI [7]: > 76.6 µM
- TGI [8]: 42.1 µM

Structure (SMILES): CCCCCCCCCCC[N+]1(Cc2ccccc2)CC2CCN(Cc3ccccc3)CC2C1 (stereo not given)
- TGI [1]: 1.6 µM
- TGI [10]: 1.37 µM
- TGI [2]: 2 µM
- TGI [3]: 1.14 µM
- TGI [4]: 1.5 µM
- TGI [5]: 2.56 µM
- TGI [6]: 1.98 µM
- TGI [7]: 1.03 µM
- TGI [8]: 1.48 µM

Structure (SMILES): S=c1oc(CCCCCCCCc2nn(CNc3ccc(Cl)cc3)c(=S)o2)nn1CNc1ccc(Cl)cc1
- TGI [9]: > 100 µM
- TGI [2]: > 100 µM
- TGI [3]: > 100 µM
- TGI [4]: > 100 µM
- TGI [5]: > 100 µM
- TGI [6]: > 100 µM
- TGI [7]: > 100 µM
- TGI [8]: > 100 µM

Structure (SMILES): Cc1ccc(C2(N3CCOCC3)OC(C)(C)c3cccc4cccc2c34)cc1 (stereo not given)
- TGI [1]: 31 µM
- TGI [10]: 60.4 µM
- TGI [3]: 34.6 µM
- TGI [4]: 32.5 µM
- TGI [5]: 31 µM
- TGI [6]: 35.8 µM
- TGI [7]: 34.9 µM
- TGI [8]: 32.7 µM

Structure (SMILES): Cc1c(Cl)c(=O)oc2cc(OCC(O)COC(C)C)ccc12 (stereo not given)
- TGI [1]: > 100 µM
- TGI [10]: > 100 µM
- TGI [2]: 37.3 µM
- TGI [3]: > 100 µM
- TGI [5]: > 100 µM
- TGI [7]: > 100 µM
- TGI [8]: 92.4 µM

Structure (SMILES): Cc1cn([C@@H]2C[C@](C)(CO)N(C)O2)c(=O)[nH]c1=O
- TGI [1]: > 100 µM
- TGI [9]: > 100 µM
- TGI [2]: > 100 µM
- TGI [3]: > 100 µM
- TGI [4]: > 100 µM
- TGI [5]: > 100 µM
- TGI [6]: > 100 µM
- TGI [7]: > 100 µM
- TGI [8]: > 100 µM

Structure (SMILES): Cn1cnc(/C=C/C#N)c1
- TGI [9]: > 100 µM
- TGI [2]: > 100 µM
- TGI [3]: > 100 µM
- TGI [4]: > 100 µM
- TGI [5]: > 100 µM
- TGI [6]: > 100 µM
- TGI [7]: > 100 µM
- TGI [8]: > 100 µM

Structure (SMILES): C=C1C(=O)O[C@H]2[C@H]1CC/C(COC(=O)/C=C/C(=O)OC/C1=C/CC[C@@]3(C)O[C@H]3[C@H]3OC(=O)C(=C)[C@@H]3CC1)=C\CC[C@@]1(C)O[C@@H]21
- GI50 [1]: 1.07 µM
- TGI [1]: 2.4 µM
- GI50 [3]: 1.64 µM
- TGI [3]: 3.14 µM
- GI50 [4]: 1.49 µM
- TGI [4]: 4.04 µM
- GI50 [6]: 1.42 µM
- TGI [6]: 3.11 µM
- GI50 [8]: 1.26 µM
- TGI [8]: 3.89 µM
